Measured values: patent US12059425B2, “Heterocyclic compounds and uses thereof” (Kumquat Biosciences Inc., priority 2022, dated 2024)

How the values were obtained:
[1] = target: T1, K-Ras G12D (Homo sapiens, UniProt P01116, G12D); test: PPI-HTRF assay, K-Ras G12D / SOS1 interaction; assay type: biochemical; conditions: HTRF, K-Ras G12D; read-out: PPI-HTRF-5 nM (K-Ras G12D IC50)
T1 construct: made in house; host or cells: E. coli, e.g. BL21 (DE3)
Method in brief: (§1)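 Disruption of K-Ras–SOS1 binding is followed by FRET between a europium-labelled anti-GST antibody on GST-K-Ras and an XL665-labelled anti-His antibody on His-hSOS1. Protein concentrations are set in the same molar range as the IC50s measured. The 665/620 nm ratio gives IC50, with duplicates tested at 10, 2.5, 0.63, 0.16, 0.04 and 0.01 μM.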

[2] = target: T2, K-Ras G12S (Homo sapiens, UniProt P01116, G12S); test: PPI-HTRF assay, K-Ras G12S / SOS1 interaction; assay type: biochemical; conditions: read-out: PPI-HTRF-5 nM (K-Ras G12S IC50)
T2 construct: made in house; host or cells: E. coli, e.g. BL21 (DE3)
T2 sequence (P01116 1-188 isoform P01116-2 G12S): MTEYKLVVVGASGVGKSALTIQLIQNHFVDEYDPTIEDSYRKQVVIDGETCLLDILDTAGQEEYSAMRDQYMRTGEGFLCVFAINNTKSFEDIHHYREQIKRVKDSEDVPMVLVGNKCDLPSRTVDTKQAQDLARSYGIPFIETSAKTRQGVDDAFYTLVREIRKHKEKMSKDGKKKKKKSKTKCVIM
Method in brief: as §1

[3] = target: T3, K-Ras G12V (Homo sapiens, UniProt P01116, G12V); test: PPI-HTRF assay, K-Ras G12V / SOS1 interaction; assay type: biochemical; conditions: HTRF, K-Ras G12V; read-out: PPI-HTRF-5 nM (K-Ras G12V IC50)
T3 construct: made in house; host or cells: E. coli, e.g. BL21 (DE3)
T3 sequence (P01116 1-188 isoform P01116-2 G12V): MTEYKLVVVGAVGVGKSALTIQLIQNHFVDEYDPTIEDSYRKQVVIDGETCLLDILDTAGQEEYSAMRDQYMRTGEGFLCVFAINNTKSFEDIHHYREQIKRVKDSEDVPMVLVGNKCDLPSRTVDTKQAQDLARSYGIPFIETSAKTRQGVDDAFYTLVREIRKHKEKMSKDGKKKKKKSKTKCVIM
Method in brief: as §1

[4] = target: T4, wildtype K-Ras (Homo sapiens, UniProt P01116); test: PPI-HTRF assay, wildtype K-Ras / SOS1 interaction; assay type: biochemical; conditions: HTRF, K-Ras wt; read-out: PPI-HTRF-5 nM (K-Ras wt IC50)
T4 construct: made in house; host or cells: E. coli, e.g. BL21 (DE3)
T4 sequence (P01116 1-188 isoform P01116-2): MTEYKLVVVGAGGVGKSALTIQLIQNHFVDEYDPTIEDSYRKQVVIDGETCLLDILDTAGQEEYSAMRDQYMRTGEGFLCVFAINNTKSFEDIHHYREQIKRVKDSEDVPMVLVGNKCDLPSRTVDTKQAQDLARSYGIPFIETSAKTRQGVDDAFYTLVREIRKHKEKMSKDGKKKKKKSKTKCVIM
Method in brief: as §1

[5] = system: GP2D cells; test: Ras cellular assay, cell proliferation GP2D; assay type: cell-based
Method in brief: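 Growth inhibition read by CellTiter-Glo luminescence roughly 5 days after compound addition, which followed overnight plating of G12D-mutant GP2D cells (e.g., 800 per well). Compounds were tested as a serial dilution (e.g., 9 points, 3-fold), with IC50 fitted by four-parameter model.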

[6] = system: A549 cells; test: Ras cellular assay, cell proliferation A549; assay type: cell-based; conditions: Homo sapiens
Method: (§2) For example, this assay can be also used to assess selective growth inhibition of a mutant Ras protein relative to a wildtype, or relative to a different mutant Ras protein.
A549 (ATCC CRL-185) and LS123 (ATCC CRL-255) cell lines comprise a G12S mutation and can be used to assess Ras cellular signaling in vitro, e.g., in response to treatment with a compound described herein. A549 culture medium is prepared with RPMI-1640 and 10% heat-inactivated FBS. LS123 culture medium is prepared with RPMI-1640 and 10% heat-inactivated FBS. A CellTiter-Glo (CTG) luminescent based assay (Promega) is used to assess growth of the cells, as a measurement of the ability of the compounds herein to inhibit Ras signaling in the cells. The cells (e.g., 800 per well) are seeded in their respective culture medium in standard tissue culture-treated 384-well format plates (Falcon #08-772-116) or ultra-low attachment surface 384-well format plates (S-Bio #MS-9384WZ). The day after plating, cells are treated with a dilution series (e.g., a 10 point, 3-fold dilution series) of the compounds herein (e.g., approximately 40 μL final volume per well). Cell viability can be monitored (e.g., approximately 6 days later) according to the manufacturer's recommended instructions, where CellTiter-Glo reagent is added (e.g., approximately 10 μL), vigorously mixed, covered, and placed on a plate shaker (e.g., approximately for 20 min) to ensure sufficient cell lysis prior to assessment of luminescent signal. The IC50 values are determined using the four parameter fit. The resulting IC50 value is a measurement of the ability of the test compound to reduce cell growth of Ras-driven cells (e.g., tumor cell lines) in vitro and/or in vivo.

[7] = system: SW620 cells; test: Ras cellular assay, cell proliferation SW620; assay type: cell-based; conditions: Homo sapiens, SW-620
From the text: as §2

T1 sequence (P01116 1-188 isoform P01116-2 G12D): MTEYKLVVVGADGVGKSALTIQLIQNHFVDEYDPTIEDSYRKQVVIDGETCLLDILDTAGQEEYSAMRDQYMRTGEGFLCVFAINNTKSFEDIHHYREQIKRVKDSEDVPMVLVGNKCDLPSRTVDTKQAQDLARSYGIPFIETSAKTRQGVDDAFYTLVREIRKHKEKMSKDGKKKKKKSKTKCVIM

| Structure (SMILES) | IC50 [1] [µM] | IC50 [2] [µM] | IC50 [3] [µM] | IC50 [4] [µM] | IC50 [6] [µM] | IC50 [7] [µM] | IC50 [5] [µM] |
| --- | --- | --- | --- | --- | --- | --- | --- |
| CN1c2nc(OC[C@@]34CCCN3C[C@H](F)C4)nc3c(F)c(-c4ccc(F)c5sc(N)c(C#N)c45)c(Cl)c(c23)OCC2CNCC21 (stereo partly drawn) [compound 140, 2-amino-4-(6-chloro-4-fluoro-2-(((2R,7aS)-2-fluorotetrahydro-1H-pyrrolizin-7a(5H)-yl)methoxy)-12-methyl-8a,9,10,11,11a,12-hexahydro-8H-pyrrolo[3′,4′:6,7][1,5]oxazocino[4,3,2-de]quinazolin-5-yl)-7-fluorobenzo[b]thiophene-3-carbonitrile] | < 5 | < 5 | < 5 | < 5 | < 5 | < 5 | < 5 |
| N#Cc1c(N)sc2c(F)ccc(-c3c(Cl)c4c5c(nc(OC[C@@]67CCCN6C[C@H](F)C7)nc5c3F)N3CCCNCC3CO4)c12 (stereo partly drawn) [compound 151, 2-amino-4-(12-chloro-10-fluoro-8-(((2R,7aS)-2-fluorotetrahydro-1H-pyrrolizin-7a(5H)-yl)methoxy)-2,3,4,5,14,14a-hexahydro-1H-[1,4]diazepino[2′,1′:3,4][1,4]oxazepino [5,6,7-de]quinazolin-11-yl)-7-fluorobenzo[b]thiophene-3-carbonitrile] | < 5 | < 5 | < 5 | < 5 | < 5 | < 5 | < 5 |
| N#Cc1c(N)sc2c(F)ccc(-c3c(Cl)c4c5c(nc(OCC67CCCN6C[C@H](F)C7)nc5c3F)N3CCCCCC3CO4)c12 (stereo partly drawn) [compound 193, 2-amino-4-(3-chloro-1-fluoro-13-(((2R,7aS)-2-fluorotetrahydro-1H-pyrrolizin-7a(5H)-yl)methoxy)-5a,6,7,8,9,10-hexahydro-5H-azepino[2′,1′:3,4][1,4]oxazepino[5,6,7-de]quinazolin-2-yl)-7-fluorobenzo[b]thiophene-3-carbonitrile] | < 5 | < 5 | < 5 | < 5 | < 5 | < 5 | < 5 |
| CN1c2nc(OC[C@@]34CCCN3C[C@H](F)C4)nc3c(F)c(-c4ccc(F)c5sc(N)c(C#N)c45)c(Cl)c(c23)OCC2CN(C(=O)[C@@H]3N[C@H]3C3CC3)CC21 (stereo partly drawn) [compound 146, 2-amino-4-(6-chloro-10-((2R,3S)-3-cyclopropylaziridine-2-carbonyl)-4-fluoro-2-(((2R,7aS)-2-fluorotetrahydro-1H-pyrrolizin-7a(5H)-yl)methoxy)-12-methyl-8a,9,10,11,11a,12-hexahydro-8H-pyrrolo[3′,4′:6,7][1,5]oxazocino[4,3,2-de]quinazolin-5-yl)-7-fluorobenzo[b]thiophene-3-carbonitrile] | < 5 | < 5 | < 5 | < 5 | > 5 | < 5 | < 5 |
| N#Cc1c(N)sc2c(F)ccc(-c3c(Cl)c4c5c(nc(OC[C@@]67CCCN6C[C@H](F)C7)nc5c3F)N3Cc5ccnn5CCC3CCO4)c12 (single isomer, unassigned) [compound 153] | < 5 | < 5 | < 5 | < 5 | < 5 | < 5 | < 5 |
| N#Cc1c(N)sc2c(F)ccc(-c3c(Cl)c4c5c(nc(OCC67CCCN6C[C@H](F)C7)nc5c3F)N3CC(CO)CCC3CO4)c12 (stereo partly drawn) [compound 215, 2-amino-4-(6-chloro-4-fluoro-2-(((2R)-2-fluorotetrahydro-1H-pyrrolizin-7a(5H)-yl)methoxy)-11-(hydroxymethyl)-8,8a,9,10,11,12-hexahydropyrido[2′,1′:3,4][1,4]oxazepino [5,6,7-de]quinazolin-5-yl)-7-fluorobenzo[b]thiophene-3-carbonitrile] | < 5 | < 5 | < 5 | < 5 | < 5 | < 5 | < 5 |
| N#Cc1c(N)sc2c(F)ccc(-c3c(Cl)c4c5c(nc(OCC67CCCN6C[C@H](F)C7)nc5c3F)N3CC(C#N)CCC3CO4)c12 (stereo partly drawn) [compound 150, 5-(2-amino-3-cyano-7-fluorobenzo[b]thiophen-4-yl)-6-chloro-4-fluoro-2-(((2R)-2-fluorotetrahydro-1H-pyrrolizin-7a(5H)-yl)methoxy)-8,8a,9,10,11,12-hexahydropyrido[2′,1′:3,4][1,4]oxazepino [5,6,7-de]quinazoline-11-carbonitrile] | < 5 | < 5 | < 5 | < 5 | < 5 | < 5 | < 5 |
| N#CCC1CCC2COc3c(Cl)c(-c4ccc(F)c5sc(N)c(C#N)c45)c(F)c4nc(OC[C@@]56CCCN5C[C@H](F)C6)nc(c34)N12 (stereo partly drawn) [compound 107, 2-amino-4-(6-chloro-11-(cyanomethyl)-4-fluoro-2-(((2R,7aS)-2-fluorotetrahydro-1H-pyrrolizin-7a(5H)-yl)methoxy)-8a,9,10,11-tetrahydro-8H-pyrrolo[2′,1′:3,4][1,4]oxazepino[5,6,7-de]quinazolin-5-yl)-7-fluorobenzo[b]thiophene-3-carbonitrile] | < 5 | < 5 | < 5 | < 5 | < 5 | < 5 | < 5 |

Further lines, with some results ahead:

| IC50 [1] [µM] | IC50 [2] [µM] | IC50 [3] [µM] | IC50 [4] [µM] | IC50 [6] [µM] | IC50 [7] [µM] | Structure (SMILES) | IC50 [5] [µM] |
| --- | --- | --- | --- | --- | --- | --- | --- |
| < 5 | < 5 | < 5 | < 5 | < 5 | < 5 | N#Cc1c(N)sc2c(F)ccc(-c3c(Cl)c4c5c(nc(OCC67CCCN6C[C@H](F)C7)nc5c3F)N3CCC(O)CC3CO4)c12 (stereo partly drawn) [compound 132, 2-amino-4-(3-chloro-1-fluoro-12-(((2R,7aS)-2-fluorotetrahydro-1H-pyrrolizin-7a(5H)-yl)methoxy)-7-hydroxy-5,5a,6,7,8,9-hexahydropyrido[2′,1′:3,4][1,4]oxazepino[5,6,7-de]quinazolin-2-yl)-7-fluorobenzo[b]thiophene-3-carbonitrile] | < 5 |
| < 5 | < 5 | < 5 | < 5 | < 5 | < 5 | N#Cc1c(N)sc2c(F)ccc(-c3c(Cl)c4c5c(nc(OC[C@@]67CCCN6C[C@H](F)C7)nc5c3F)N3CCC[C@@H]3CO4)c12 [compound 144, 2-amino-4-((12aR)-10-chloro-8-fluoro-6-(((2R,7aS)-2-fluorotetrahydro-1H-pyrrolizin-7a(5H)-yl)methoxy)-2,3,12,12a-tetrahydro-1H-pyrrolo[2′,1′:3,4][1,4]oxazepino[5,6,7-de]quinazolin-9-yl)-7-fluorobenzo[b]thiophene-3-carbonitrile] | < 5 |
| < 5 | < 5 | < 5 | < 5 | < 5 | < 5 | N#Cc1c(N)sc2c(F)ccc(-c3c(Cl)c4c5c(nc(OCC67CCCN6C[C@H](F)C7)nc5c3F)N3CCCC[C@@H]3CO4)c12 (stereo partly drawn) [compound 103, 2-amino-4-((5aR)-3-chloro-1-fluoro-12-(((2R)-2-fluorotetrahydro-1H-pyrrolizin-7a(5H)-yl)methoxy)-5,5a,6,7,8,9-hexahydropyrido[2′,1′:3,4][1,4]oxazepino [5,6,7-de]quinazolin-2-yl)-7-fluorobenzo[b]thiophene-3-carbonitrile] | < 5 |
